# Results as given in US20090247770A1, “PROCESS FOR MAKING LACTAM TACHYKININ RECEPTOR ANTAGONISTS” (priority 2006, published 2009).
# Structures can show the parent of a compound that is named as a salt. Where two headings read alike, the source gives them in different places.
# How the values were obtained:
# [1] = Relative thermodynamic stability of crystal forms; type: physicochemical; conditions: comparison of besylate crystal forms
# Source text: The benzyloxycarbonyl (Cbz) group of 16 was cleaved to give 1 by a noble transition metal, such as Pd/C, […], Pt/C, catalyzed hydrogenation in an alcoholic solvent such as methanol, ethanol, or the like, or by acidic solvolysis with a hydrogen halide such as HCl, HBr, or HI or an equivalent such as combination of a metal or an ammonium halide and an acid trifluoroacetic acid, methanesulfonic acid, or the like in organic solvent such as acetonitrile, toluene, or acetic acid at a temperature from about 0° C. to about 60° C. If this deprotection of Cbz group was carried out under acidic condition, 1 could be obtained from 14a,b or 15a,b in a one-pot manner. Benzyl halide, which was a side product of deprotection of Cbz group, was easily removed from the reaction mixture by back-extraction with heptane. Free base of 1 was difficult to be extracted from the aqueous layer to organic layer because of its amphipathic physical property. […] Crude free base was purified by crystallization as a benzenesulfonate salt from IPA-IPAc-heptane solvent system. The benzenesulfonate salt has two crystal forms Form I or II. […] The benzenesulfonate salt can be recrystallized from acetonitrile and alcohol such as methanol, ethanol, or isopropanol, if necessary.
# [2] = Solid state physical stability (form conversion) of crystalline salts; type: physicochemical; conditions: No form conversion after 1 week at 40° C./ambient RH, 40° C./75% RH, and 80° C.
# [3] = Solid state chemical stability of crystalline salts; type: physicochemical
# [4] = Hygroscopicity of crystalline salts of the compound of Formula Ia; type: physicochemical
SMILES,melting point,Thermodynamic stability relative to other crystal form [1],Solid State Physical Stability [2],Solid State Chemical Stability [3],Hygroscopicity (25° C.) [4],Solid State Physical Stability ([2]; listed as anhydrous form I),Solid State Chemical Stability ([3]; listed as anhydrous form I)
C[C@@H](O[C@H]1CC[C@@H]([C@H]2C[C@@](C)(N)C(=O)N2)[C@@H]1c1ccc(F)cc1)c1cc(C(F)(F)F)cc(C(F)(F)F)c1 (as salt: succinate) (hydrate or solvate),187 °C,–,–,–,–,–,–
C[C@@H](O[C@H]1CC[C@@H]([C@H]2C[C@@](C)(N)C(=O)N2)[C@@H]1c1ccc(F)cc1)c1cc(C(F)(F)F)cc(C(F)(F)F)c1 [Besylate Anhydrous Form II],–,more thermodynamically stable than Form 1,Stable^3,Stable,–,–,–
C[C@@H](O[C@H]1CC[C@@H]([C@H]2C[C@@](C)(N)C(=O)N2)[C@@H]1c1ccc(F)cc1)c1cc(C(F)(F)F)cc(C(F)(F)F)c1 [Besylate Anhydrous Form I],–,more thermodynamically stable than form II,Stable^3,Stable,consistently non-hygroscopic,physically and chemically stable,physically and chemically stable
C[C@@H](O[C@H]1CC[C@@H]([C@H]2C[C@@](C)(N)C(=O)N2)[C@@H]1c1ccc(F)cc1)c1cc(C(F)(F)F)cc(C(F)(F)F)c1 [Succinate],–,–,Stable,–,–,–,–
